# Like-named read-outs stand apart in the source and are kept apart here.
# What was measured:
# [1] = design: method as in PMID 21456622; details: calves fed P. esculentum, PTA dose 4.5 μmol kg^-1 b.w.; cited from earlier work
# [2] = One-week repeated dose trial with dried bracken, plasma toxicokinetics; format: in vivo, Jersey heifers; details: for AUC0-∞ / MTT: PTB in plasma, daily PTA dose 2 mg kg^-1
# Source text: The two heifers used for the single dose trials were also used for the one week repeated dose study together with an additional two Jersey heifers (no’s 1550 and 1567; Harald Hansen Eftf. I/S, Slangerup, Denmark) weighing 163 to 237 kg. The additional two heifers had never been exposed to PTA or to bracken fern. A wash-out period of 20 days between the last single-dose experiment and the one week repeated dose trial was established for heifers no’s 4848 and 4849.
# All four heifers were fed dried bracken powder (top-dressed and molasses added). twice a day during a period of 7 days providing a daily PTA dose of 2 mg kg^-1 (5 μmoles kg^-1). On Day 8, the heifers no 4848 and no 1567 were additionally fed in the morning and euthanized 1 hour after using a captive bolt pistol and exsanguination. The two other heifers (no 4849 and no 1550) were euthanized 15 h after the last dose on Day 7 (Fig 2).
# Blank blood samples were collected before the first dose was given. On Day 1 and Day 7 blood samples were collected after the morning dose at predetermined time points between 1 and 6 h after dosing (1, 2, 3, 5 and 6 hours). On Day 2 to Day 6 blood samples were collected daily 1 hour after 50% or more of the morning feed had been ingested, since the bracken fern was not eaten instantly. On Day 8 blood samples were collected just before euthanasia. Blood samples were processed and stored as described above.
# (§1) Concentrations of PTA in plasma of individual animals were evaluated by non-compartmental analysis. Toxicokinetic variables were calculated using standard kinetic equations. The area under the curve (AUC) and the area under the first moment curve (AUMC) were determined using combined linear and natural logarithm trapezoidal rules. The terminal elimination rate was determined using the last three data points of the curve.
# [3] = Urinary recovery after oral administration of bracken extract or dried bracken fern; format: in vivo, Jersey heifers; details: oral bracken extract or dried fern, within 24 hours
# Description: (§2) Oral exposure, bracken extract. Bracken extract was administered orally by gavage in Experiment 2 (170 and 172 mL) and Experiment 5 (820 and 850 mL), to obtain PTA doses of 0.41 and 2 mg kg^-1 b.w (1.025 and 5.000 μmoles kg^-1), respectively. Blood and urine samples were collected up to 48 hours after gavage and samples were processed and stored as described previously.
# (§3) Oral exposure, dried bracken fern. In Experiment 3, dried bracken fern was milled to a fine powder. Immediately before administration, the powder was mixed with water to produce a slurry (15 g of bracken per 100 mL of water). The slurry was administered orally by gavage (400 mL and 380 mL) corresponding to a PTA dose of 1.6 mg kg^-1 b.w (4 μmoles kg^-1). Blood and urine samples were collected up to 72 hours after gavage and the samples were processed and stored as described above.
# (§4) PTA and PTB were analysed by LC-MS after purification using solid phase extraction (SPE) columns as reported in Aranha et al.. The limit of quantification of PTA and PTB in plasma was 3.0 x 10^−3 μM and 9.30 x 10^−3 μM, respectively. Limit of quantifications in diluted urine was 13 x 10^−3 μM for PTA and 8.28 x 10^−3μM for PTB.
# [4] = Toxicokinetics in plasma after oral administration of bracken extract or dried bracken fern; format: in vivo, Jersey heifers; details: for AUC0-∞ / MTT mean transit time: PTB in plasma; for Cmax / Tmax / k el: female, Jersey, plasma, po; for Cmax: read-out: Cmax maximum concentration; for k el: read-out: λz terminal slope (converted)
# Description: Two heifers (no’s 4848 and 4849) were used in a series of five experiments (Table 1) in a cross-over design including intravenous administration of pure PTA, oral administration of bracken extract and oral administration of dried bracken fern. At least 2 weeks elapsed between each experiment.
# as §2, §3, §1, §4
# [5] = Day 1, heifer 1550, dried bracken twice a day
# [6] = Day 1, heifer 1567, dried bracken twice a day
# [7] = Day 1, heifer 4848, dried bracken twice a day
# [8] = Day 1, heifer 4849, dried bracken twice a day
# [9] = Day 7, heifer 1550, dried bracken twice a day
# [10] = Day 7, heifer 1567, dried bracken twice a day
# [11] = Day 7, heifer 4848, dried bracken twice a day
# [12] = Day 7, heifer 4849, dried bracken twice a day
# [13] = oral bracken extract, PTA dose 1.03 μmoles kg^-1, heifer no 4848
# [14] = oral bracken extract, PTA dose 1.03 μmoles kg^-1, heifer no 4849
# [15] = oral bracken extract, PTA dose 5.02 μmoles kg^-1, heifer no 4848
# [16] = oral bracken extract, PTA dose 5.02 μmoles kg^-1, heifer no 4849
# [17] = oral dried bracken, PTA dose 4.02 μmoles kg^-1, heifer no 4848
# [18] = oral dried bracken, PTA dose 4.02 μmoles kg^-1, heifer no 4849
# [19] = bovine, 1.03 μmoles kg^-1, PTB in plasma, oral bracken extract, PTA dose 1.03 μmoles kg^-1, heifer no 4848
# [20] = bovine, 1.03 μmoles kg^-1, PTB in plasma, oral bracken extract, PTA dose 1.03 μmoles kg^-1, heifer no 4849
# [21] = bovine, 4.02 μmoles kg^-1, PTB in plasma, oral dried bracken, PTA dose 4.02 μmoles kg^-1, heifer no 4848
# [22] = bovine, 4.02 μmoles kg^-1, PTB in plasma, oral dried bracken, PTA dose 4.02 μmoles kg^-1, heifer no 4849
# [23] = bovine, 5.02 μmoles kg^-1, PTB in plasma, oral bracken extract, PTA dose 5.02 μmoles kg^-1, heifer no 4848
# [24] = bovine, 5.02 μmoles kg^-1, PTB in plasma, oral bracken extract, PTA dose 5.02 μmoles kg^-1, heifer no 4849
compound,measurement,setting,value
"Cc1cc2c(c(C)c1CCO)C(=O)[C@H](C)C2 [PTB, pterosin B]",peak concentration of PTB in plasma relative to the single dose study of this paper,[1],26 times
same,AUC0-∞,"[2]; Day 1, average of four heifers",0.774 µM·h
same,MTT,"[2]; Day 1, average of four heifers",3.8 h
same,AUC0-∞,[2]; [5],0.386 µM·h
same,MTT,[2]; [5],2.3 h
same,AUC0-∞,[2]; [6],1.248 µM·h
same,MTT,[2]; [6],4.4 h
same,AUC0-∞,[2]; [7],0.873 µM·h
same,MTT,[2]; [7],4.6 h
same,AUC0-∞,[2]; [8],0.591 µM·h
same,MTT,[2]; [8],3.9 h
same,AUC0-∞,"[2]; Day 7, average of four heifers",0.849 µM·h
same,MTT,"[2]; Day 7, average of four heifers",3.4 h
same,AUC0-∞,[2]; [9],0.606 µM·h
same,MTT,[2]; [9],3.2 h
same,AUC0-∞,[2]; [10],1.264 µM·h
same,MTT,[2]; [10],3.6 h
same,AUC0-∞,[2]; [11],0.968 µM·h
same,MTT,[2]; [11],3.9 h
same,AUC0-∞,[2]; [12],0.558 µM·h
same,MTT,[2]; [12],3.0 h
same,transient peak of PTB in plasma as share of the PTA dose,[2]; after the morning dose,10%
same,accumulation of PTB in the organism,[2]; mean AUC0-∞ Day 1 vs Day 7,not accumulated
same,PTB recovered in urine,[3],up to 7 % of the dose
same,PTB recovered in urine,[3]; listed as Pterosin B,7 % of the dose
same,AUC0-∞,[4]; [13],0.177 µM·h
same,MTT mean transit time,[4]; [13],3.82 h
same,AUC0-∞,[4]; [14],0.367 µM·h
same,MTT mean transit time,[4]; [14],4.55 h
same,AUC0-∞,[4]; [15],0.594 µM·h
same,MTT mean transit time,[4]; [15],2.89 h
same,AUC0-∞,[4]; [16],0.657 µM·h
same,MTT mean transit time,[4]; [16],3.02 h
same,AUC0-∞,[4]; [17],0.897 µM·h
same,MTT mean transit time,[4]; [17],3.29 h
same,AUC0-∞,[4]; [18],0.428 µM·h
same,MTT mean transit time,[4]; [18],3.58 h
same,PTB in plasma and urine after oral administration,[4]; bracken extract or dried ferns,detected in both plasma and urine
same,Cmax,[4]; [19],28 nM
same,Tmax,"[4]; bovine, 1.03 μmoles kg^-1, PTB in plasma, oral bracken extract, PTA dose 1.03 μmoles kg^-1, heifer no 4848, read-out: Tmax time at maximum concentration",2 h
same,k el,[4]; [19],6.5e-05 s⁻¹
same,Cmax,[4]; [20],43 nM
same,Tmax,"[4]; bovine, 1.03 μmoles kg^-1, PTB in plasma, oral bracken extract, PTA dose 1.03 μmoles kg^-1, heifer no 4849, read-out: Tmax time at maximum concentration",0.5 h
same,k el,[4]; [20],2.78e-05 s⁻¹
same,Cmax,[4]; [21],182 nM
same,Tmax,"[4]; bovine, 4.02 μmoles kg^-1, PTB in plasma, oral dried bracken, PTA dose 4.02 μmoles kg^-1, heifer no 4848, read-out: Tmax time at maximum concentration",0.5 h
same,k el,[4]; [21],8.56e-05 s⁻¹
same,Cmax,[4]; [22],74 nM
same,Tmax,"[4]; bovine, 4.02 μmoles kg^-1, PTB in plasma, oral dried bracken, PTA dose 4.02 μmoles kg^-1, heifer no 4849, read-out: Tmax time at maximum concentration",2 h
same,k el,[4]; [22],7.78e-05 s⁻¹
same,Cmax,[4]; [23],160 nM
same,Tmax,"[4]; bovine, 5.02 μmoles kg^-1, PTB in plasma, oral bracken extract, PTA dose 5.02 μmoles kg^-1, heifer no 4848, read-out: Tmax time at maximum concentration",1 h
same,k el,[4]; [23],0.000106 s⁻¹
same,Cmax,[4]; [24],174 nM
same,Tmax,"[4]; bovine, 5.02 μmoles kg^-1, PTB in plasma, oral bracken extract, PTA dose 5.02 μmoles kg^-1, heifer no 4849, read-out: Tmax time at maximum concentration",0.75 h
same,k el,[4]; [24],8.06e-05 s⁻¹
same,Tmax,"[4]; cattle, PTB, oral bracken extract and bracken fern, read-out: time to maximum concentration in plasma (Tmax)",~1 h

# From publication PMC6588243, “Fate of ptaquiloside—A bracken fern toxin—In cattle” (PLoS ONE, 2019)
